Results as given in patent US7763602B2, “Pyrrole derivatives as antimycobacterial compounds” (priority 2002, dated 2010).
Converted amounts (≈) assume the structure as drawn.

Tests used:
Assay type in all cases: cell-based, Mycobacterium tuberculosis
[1] = tested on: M. tuberculosis H37Rv ATCC 27294; assay: In vitro growth inhibition assay, BACTEC 460 TB system; set-up: key: +: If ΔGI of test vial is less than that of the control vial the culture was sensitive to the test compound; settings: final concentration 6.25 μg/ml
M. tuberculosis 27294 = assay: In vitro agar dilution assay (MIC), reference strain; settings: for MIC (μg/ml) against M. tuberculosis-27294: Table I; for MIC: Mycobacterium tuberculosis, 27294, Table I, read-out: MIC (μg/ml) against M. tuberculosis-27294
[2] = tested on: M. tuberculosis clinical isolates, sensitive; assay: microbe, parasite or virus in culture; settings: for MIC (μg/ml) against Clinical isolates Sensitive: Table I, agar dilution; for MIC: Mycobacterium tuberculosis, read-out: MIC (μg/ml) against Clinical isolates Sensitive

SMILES | Growth inhibition of M. tuberculosis 27294 [1] | MIC (μg/ml) against M. tuberculosis-27294 (M. tuberculosis 27294) [µg/mL] | MIC (μg/ml) against Clinical isolates Sensitive [2] | MIC (M. tuberculosis 27294) [µg/mL] | MIC [2] [µg/mL]
Cc1cc(CN2CCN(c3cccc(C(F)(F)F)c3)CC2)c(-c2ccccc2)n1NC(=O)c1ccncc1 [Compound No. 23, N-(3-{[4-(3-trifluoromethylphenyl)piperazinyl]methyl}-5-methyl-2-phenylpyrrolyl)-4-pyridylcarboxamide] | + | 0.25 (≈ 0.481 µM) | 0.25 to 1.0 µg/mL |  | 
Cc1c(CN2CCN(C(=O)c3ccco3)CC2)cc(-c2ccc(Cl)cc2)n1-c1ccc(Cl)cc1 [compound 7, 4-{[1,5-bis(4-chlorophenyl)-2-methylpyrrol-3-yl]methyl}piperazinyl-2-furyl-ketone] | + | 4.0 (≈ 8.09 µM) | 1.0 to 4.0 µg/mL |  | 
Cc1c(CN2CCN(c3cccc(C(F)(F)F)c3)CC2)cc(-c2ccc(Cl)cc2)n1NC(=O)c1cnccn1 [compound 39, N-(5-(4-chlorophenyl)-3-{[4-(3-trifluoromethylphenyl)piperazinyl]methyl}-2-methylpyrrolyl)pyrazin-2-ylcarboxamide] | + | 4.0 (≈ 7.21 µM) | 4.0 to 8.0 µg/mL |  | 
Cc1cc(CN2CCN(c3ccccn3)CC2)c(-c2ccccc2)n1-c1ccc(F)cc1F [compound 58, 1-{[1-(2,4-difluorophenyl)-5-methyl-2-phenylpyrrol-3-yl]methyl}-4-(2-pyridyl) piperazine] | + |  |  | 8 (≈ 18 µM) | 8 (≈ 18 µM)
COc1ccccc1N1CCN(Cc2cc(C)n(-c3cccc4ccccc34)c2-c2ccc(Cl)cc2)CC1 [compound 63, 1-{[2-(4-chlorophenyl)-5-methyl-1-naphthylpyrrol-3-yl]methyl}-4-(2-methoxyphenyl)piperazine] | + | 8.0 (≈ 15.3 µM) | 4.0 to 8.0 µg/mL |  | 
Cc1c(CN2CCN(C)CC2)cc(-c2ccccc2)n1NC(=O)c1ccncc1 [compound 16, N-{2-methyl-3-[(4-methylpiperazinyl)methyl]-5-phenylpyrrolyl}-4-pyridylcarboxamide] | + | 2.0 (≈ 5.13 µM) | 2.0 to 4.0 µg/mL |  | 
COc1ccccc1N1CCN(Cc2cc(-c3ccccc3)n(NC(=O)c3ccncc3)c2C)CC1 [compound 13, N-(3-{[4-(2-methoxyphenyl)piperazinyl]methyl}-2-methyl-5-phenylpyrrolyl)-4-pyridylcarboxamide] | + | 0.5 (≈ 1.04 µM) | 0.5 to 2.0 µg/mL |  | 
Cc1ccc(Cl)cc1N1CCN(Cc2cc(-c3ccc(Cl)cc3)n(-c3ccc(Cl)cc3)c2C)CC1 [compound 10, 1-{[1,5-bis(4-chlorophenyl)-2-methylpyrrol-3-yl]methyl}-4-(5-chloro-2-methylphenyl) piperazine] | + |  |  | 1 (≈ 1.91 µM) | 1 to 2 (≈ 1.91 to 3.81 µM)
Cc1cc(CN2CCN(Cc3ccc4c(c3)OCO4)CC2)c(-c2ccccc2)n1NC(=O)c1cnccn1 [compound 35, N-(3-{[4-(2H-benzo[3,4-d]1,3-dioxolan-5-ylmethyl)piperazinyl]methyl}-5-methyl-2-phenylpyrrolyl)pyrazin-2-ylcarboxamide] | + | >16.0 | >16.0 µg/mL |  | 
Cc1c(CN2CCN(Cc3ccccc3)CC2)cc(-c2ccccc2)n1NC(=O)c1ccncc1 [compound 15, N-(2-methyl-5-phenyl-3-{[4-benzylpiperazinyl]methyl}pyrrolyl)-4-pyridylcarboxamide] | + | 0.5 (≈ 1.07 µM) | 0.5 to 1.0 µg/mL |  | 
Cc1cc(CN2CCN(c3ccccn3)CC2)c(-c2ccccc2)n1NC(=O)c1cnccn1 [compound 34, N-(3-{[4-(2-pyridyl)piperazinyl]methyl}-5-methyl-2-phenylpyrrolyl)pyrazin-2-ylcarboxamide] | + | 16.0 (≈ 35.3 µM) | 16.0-16.0 μg/ml |  | 
Cc1c(CN2CCSCC2)cc(-c2ccccc2)n1NC(=O)c1ccncc1 [compound 21, N-[2-methyl-5-phenyl-3-(1,4-thiazaperhydroin-4-ylmethyl)pyrrolyl]-4-pyridyl carboxamide] | + | 0.5 (≈ 1.27 µM) | 0.5 to 1.0 µg/mL |  | 
Cc1c(CN2CCN(c3ccccn3)CC2)cc(-c2ccccc2)n1NC(=O)c1cnccn1 [compound 28, N-(3-{[4-(2-pyridyl)piperazinyl]methyl}-2-methyl-5-phenylpyrrolyl)pyrazin-2-ylcarboxamide] |  | 2.0 (≈ 4.41 µM) | 1.0 to 4.0 µg/mL |  | 
Cc1c(CN2CCSCC2)cc(-c2ccc(Cl)cc2)n1NC(=O)c1ccncc1 [compound 89, N-[5-(4-chlorophenyl)-2-methyl-3-(1,4-thiazaperhydroin-4-ylmethyl)pyrrolyl]-4-pyridylcarboxamide] | + | 1.0 (≈ 2.34 µM) | 2.0 to 8.0 µg/mL |  | 
Cc1c(CN2CCCC2)cc(-c2ccccc2)n1NC(=O)c1ccncc1 [compound 19, N-[2-methyl-5-phenyl-3-(pyrrolidinylmethyl)pyrrolyl]-4-pyridylcarboxamide] |  | 16.0 (≈ 44.4 µM) |  |  | 
Cc1cc(CN2CCN(c3ccc(F)cc3)CC2)c(-c2ccccc2)n1-c1ccc(F)cc1F [compound 55, 1-{[1-(2,4-difluorophenyl)-5-methyl-2-phenylpyrrol-3-yl]methyl}-4-(4-fluorophenyl) piperazine] |  |  |  | > 16 | > 16
Cc1cc(CN2CCN(Cc3ccc4c(c3)OCO4)CC2)c(-c2ccccc2)n1NC(=O)c1ccncc1 [compound 24, N-(3-{[4-(2H-benzo[d]1,3-dioxolan-5-ylmethyl)piperazinyl]methyl}-5-methyl-2-phenylpyrrolyl)-4-pyridylcarboxamide] | + | 8.0 (≈ 15.7 µM) |  |  | 
Cc1cc(CN2CCN(c3cccc(C(F)(F)F)c3)CC2)c(-c2ccc(Cl)cc2)n1NC(=O)c1cnccn1 [compound 43, N-(2-(4-chlorophenyl)-3-{[4-(3-trifluoromethylphenyl)piperazinyl]methyl}-5-methylpyrrolyl)pyrazin-2-ylcarboxamide] |  | >16.0 | >16.0 µg/mL |  | 
Cc1cc(CN2CCN(c3cccc(C(F)(F)F)c3)CC2)c(-c2ccc(Cl)cc2)n1-c1cccc2ccccc12 [compound 64, 1-{[2-(4-chlorophenyl)-5-methyl-1-naphthylpyrrol-3-yl]methyl}-4-(3-trifluoromethylphenyl)piperazine] |  | >16.0 | >16.0 µg/mL |  | 
Cc1cc(CN2CCN(c3ccc(F)cc3)CC2)c(-c2ccc(Cl)cc2)n1NC(=O)c1cnccn1 [compound 41, N-(2-(4-chlorophenyl)-3-{[4-(4-fluorophenyl)piperazinyl]methyl}-5-methylpyrrolyl)pyrazin-2-ylcarboxamide] |  | >16.0 | >16.0 µg/mL |  | 
COc1ccccc1N1CCN(Cc2cc(C)n(NC(=O)c3cnccn3)c2-c2ccccc2)CC1 [compound 32, N-(3-{[4-(2-methoxyphenyl)piperazinyl]methyl}-5-methyl-2-phenylpyrrolyl) pyrazin-2-ylcarboxamide] |  | >16.0 | >16.0 µg/mL |  | 
Cc1c(CN2CCN(c3ccc(F)cc3)CC2)cc(-c2ccccc2)n1-c1ccc(F)cc1F [compound 51, 1-{[1-(2,4-difluorophenyl)-2-methyl-5-phenylpyrrol-3-yl]methyl}-4-(4-fluorophenyl)piperazine] |  |  |  | > 16 | > 16
COc1ccccc1N1CCN(Cc2cc(-c3ccc(Cl)cc3)n(NC(=O)c3cnccn3)c2C)CC1 [compound 38, N-(5-(4-chlorophenyl)-3-{[4-(2-methoxyphenyl)piperazinyl]methyl}-2-methylpyrrolyl)pyrazin-2-ylcarboxamide] |  | >16.0 | >16.0 µg/mL |  | 
COc1ccccc1N1CCN(Cc2cc(-c3ccc(Cl)cc3)n(-c3cccc4ccccc34)c2C)CC1 [compound 59, 1-{[5-(4-chlorophenyl)-2-methyl-1-naphthylpyrrol-3-yl]methyl}-4-(2-methoxyphenyl)piperazine] |  | >16.0 | >16.0 µg/mL |  | 
Cc1c(CN2CCN(c3ccc(F)cc3)CC2)cc(-c2ccc(Cl)cc2)n1NC(=O)c1cnccn1 [compound 37, N-(5-(4-chlorophenyl)-3-{[4-(4-fluorophenyl)piperazinyl]methyl}-2-methylpyrrolyl)pyrazin-2-ylcarboxamide] |  | 16.0 (≈ 31.7 µM) | 8 to 16.0 µg/mL |  | 
Cc1c(CN2CCN(c3cccc(C(F)(F)F)c3)CC2)cc(-c2ccccc2)n1-c1ccc(F)cc1F [compound 53, 1-{[1-(2,4-difluorophenyl)-2-methyl-5-phenylpyrrol-3-yl]methyl}-4-(3-trifluoromethylphenyl)piperazine] |  |  |  | > 16 | > 16
CCC(CO)n1c(C)c(CN2CCSCC2)c(CO)c1-c1ccccc1 (stereo not drawn) [compound 90, 2-[3-(hydroxymethyl)-5-methyl-2-phenyl-4-(1,4-thiazaperhydroin-4-ylmethyl)-pyrrolyl]butan-1-ol] |  | >16.0 | >16.0 µg/mL |  | 
